The values below come from PMC6812009, “Covalent Aurora A regulation by the metabolic integrator coenzyme A” (Redox Biology, 2019).

What all share (experiment): Kinase profiling screen (radioactive filter-binding assay)
Holding throughout (format): biochemical

Test [1] deals with GSK3β (Homo sapiens, UniProt P49841). As to conditions: 100 μM compound, 5 μM ATP; read-out: Kinase activity, % of activity in the absence of inhibitor. An outline of the steps: (§1)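 Residual kinase activity is read in duplicate wells containing 100 μM final test compound (CoA, dpCoA or ADP). Recombinant kinases use model substrates at ATP levels optimal for each enzyme, across a 117-kinase screen.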

In test [2] the target is ERK2 (Homo sapiens, UniProt P28482). Particulars: 100 μM compound, 20 μM ATP; read-out: Kinase activity, % of activity in the absence of inhibitor. An outline of the steps:
as §1

Test [3] deals with T1, PKCζ (Homo sapiens, UniProt Q05513).
T1 sequence (Q05513 1-592): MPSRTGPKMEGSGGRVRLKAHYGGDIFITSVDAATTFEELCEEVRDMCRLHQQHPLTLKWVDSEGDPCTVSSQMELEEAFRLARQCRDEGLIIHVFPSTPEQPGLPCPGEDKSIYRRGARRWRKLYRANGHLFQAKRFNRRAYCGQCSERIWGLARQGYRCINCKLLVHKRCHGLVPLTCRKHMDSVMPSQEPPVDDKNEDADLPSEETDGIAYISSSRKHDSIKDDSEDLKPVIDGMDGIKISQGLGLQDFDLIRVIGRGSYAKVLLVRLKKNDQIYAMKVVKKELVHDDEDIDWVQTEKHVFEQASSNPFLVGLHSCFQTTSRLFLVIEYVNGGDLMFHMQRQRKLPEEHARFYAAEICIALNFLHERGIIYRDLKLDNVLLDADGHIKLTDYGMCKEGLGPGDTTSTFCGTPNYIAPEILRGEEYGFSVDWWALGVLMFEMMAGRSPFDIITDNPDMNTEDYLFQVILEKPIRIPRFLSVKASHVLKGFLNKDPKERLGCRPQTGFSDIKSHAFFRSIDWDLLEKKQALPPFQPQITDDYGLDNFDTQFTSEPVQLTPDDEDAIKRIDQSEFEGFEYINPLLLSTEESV
Particulars: 100 μM compound, 5 μM ATP; read-out: Kinase activity, % of activity in the absence of inhibitor. An outline of the steps: as §1

The target in test [4] is T2, EPH-B1 (Homo sapiens, UniProt P54762).
T2 sequence (P54762 18-984): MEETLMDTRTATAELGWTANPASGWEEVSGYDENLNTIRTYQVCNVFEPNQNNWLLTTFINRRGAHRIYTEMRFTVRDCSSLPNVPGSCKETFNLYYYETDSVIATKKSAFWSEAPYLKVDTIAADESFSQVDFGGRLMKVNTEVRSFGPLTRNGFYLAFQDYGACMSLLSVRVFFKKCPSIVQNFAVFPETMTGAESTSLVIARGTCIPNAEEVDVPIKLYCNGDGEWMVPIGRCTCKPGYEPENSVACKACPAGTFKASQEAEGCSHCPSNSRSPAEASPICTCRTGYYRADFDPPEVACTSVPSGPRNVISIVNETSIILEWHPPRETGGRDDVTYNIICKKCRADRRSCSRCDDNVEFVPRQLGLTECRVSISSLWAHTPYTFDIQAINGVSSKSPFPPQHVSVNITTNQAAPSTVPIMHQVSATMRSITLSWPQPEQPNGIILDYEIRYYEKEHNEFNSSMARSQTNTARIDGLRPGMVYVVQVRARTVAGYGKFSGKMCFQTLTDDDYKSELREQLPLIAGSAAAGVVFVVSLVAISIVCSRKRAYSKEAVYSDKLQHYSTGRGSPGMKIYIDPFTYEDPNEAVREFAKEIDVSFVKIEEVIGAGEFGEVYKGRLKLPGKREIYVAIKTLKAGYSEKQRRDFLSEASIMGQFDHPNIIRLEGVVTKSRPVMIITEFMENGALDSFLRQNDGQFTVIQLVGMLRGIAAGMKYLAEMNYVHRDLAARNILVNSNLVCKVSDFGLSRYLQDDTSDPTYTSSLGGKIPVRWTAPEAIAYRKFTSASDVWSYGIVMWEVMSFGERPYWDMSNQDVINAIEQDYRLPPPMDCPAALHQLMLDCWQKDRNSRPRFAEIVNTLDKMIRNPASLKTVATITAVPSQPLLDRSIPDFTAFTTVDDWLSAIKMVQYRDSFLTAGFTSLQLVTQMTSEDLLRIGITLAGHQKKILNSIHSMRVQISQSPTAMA
As to conditions: 100 μM compound, 20 μM ATP; read-out: Kinase activity, % of activity in the absence of inhibitor. An outline of the steps:
as §1

Test [5] concerns the target T3, CHK1 (Homo sapiens, UniProt O14757).
T3 sequence (O14757 1-476): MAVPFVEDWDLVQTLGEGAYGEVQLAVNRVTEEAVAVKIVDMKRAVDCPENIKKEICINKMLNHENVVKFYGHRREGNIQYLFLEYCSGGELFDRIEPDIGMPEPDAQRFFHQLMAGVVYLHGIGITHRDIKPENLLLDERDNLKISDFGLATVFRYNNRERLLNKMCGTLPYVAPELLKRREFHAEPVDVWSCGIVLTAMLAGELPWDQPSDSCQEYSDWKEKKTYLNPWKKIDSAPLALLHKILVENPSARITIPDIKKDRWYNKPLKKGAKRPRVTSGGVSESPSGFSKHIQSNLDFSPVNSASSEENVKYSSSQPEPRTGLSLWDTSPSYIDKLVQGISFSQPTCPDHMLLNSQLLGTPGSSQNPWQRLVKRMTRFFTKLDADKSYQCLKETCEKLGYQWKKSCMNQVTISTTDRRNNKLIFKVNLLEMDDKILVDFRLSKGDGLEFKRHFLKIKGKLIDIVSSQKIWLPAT
Particulars: 100 μM compound, 20 μM ATP; read-out: Kinase activity, % of activity in the absence of inhibitor. An outline of the steps: as §1

Test [6] concerns the target RSK2 (Homo sapiens, UniProt P51812). Particulars: 100 μM compound, 50 μM ATP; read-out: Kinase activity, % of activity in the absence of inhibitor. An outline of the steps:
as §1

Test [7] has as its target CSK (Homo sapiens, UniProt P41240). As to conditions: 100 μM compound, 20 μM ATP; read-out: Kinase activity, % of activity in the absence of inhibitor. The gist of the method:
as §1

Test [8] deals with MARK2 (Homo sapiens, UniProt Q7KZI7). As to conditions: 100 μM compound, 20 μM ATP; read-out: Kinase activity, % of activity in the absence of inhibitor. The gist of the method:
as §1

Chain of MARK2 (Q7KZI7 whole entry): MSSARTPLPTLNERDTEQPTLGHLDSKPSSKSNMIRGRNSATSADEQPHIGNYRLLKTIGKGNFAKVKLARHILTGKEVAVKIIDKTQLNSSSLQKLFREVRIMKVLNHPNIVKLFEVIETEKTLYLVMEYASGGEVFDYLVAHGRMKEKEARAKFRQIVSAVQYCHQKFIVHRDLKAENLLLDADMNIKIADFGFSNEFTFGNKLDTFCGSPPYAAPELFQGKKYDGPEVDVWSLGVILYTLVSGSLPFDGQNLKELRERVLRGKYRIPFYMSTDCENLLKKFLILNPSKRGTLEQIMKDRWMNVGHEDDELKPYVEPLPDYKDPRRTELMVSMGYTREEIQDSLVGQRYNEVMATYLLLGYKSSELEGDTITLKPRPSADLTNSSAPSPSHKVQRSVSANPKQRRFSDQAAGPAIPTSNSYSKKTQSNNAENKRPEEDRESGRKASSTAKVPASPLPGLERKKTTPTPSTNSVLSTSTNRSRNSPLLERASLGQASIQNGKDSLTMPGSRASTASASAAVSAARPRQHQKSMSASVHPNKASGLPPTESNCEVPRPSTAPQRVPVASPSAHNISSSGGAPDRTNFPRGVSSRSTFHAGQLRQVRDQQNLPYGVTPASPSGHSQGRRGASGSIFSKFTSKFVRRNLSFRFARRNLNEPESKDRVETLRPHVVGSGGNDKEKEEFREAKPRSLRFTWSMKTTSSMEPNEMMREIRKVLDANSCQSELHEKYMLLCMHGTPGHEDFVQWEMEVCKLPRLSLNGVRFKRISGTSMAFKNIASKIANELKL
Chain of CSK (P41240 whole entry): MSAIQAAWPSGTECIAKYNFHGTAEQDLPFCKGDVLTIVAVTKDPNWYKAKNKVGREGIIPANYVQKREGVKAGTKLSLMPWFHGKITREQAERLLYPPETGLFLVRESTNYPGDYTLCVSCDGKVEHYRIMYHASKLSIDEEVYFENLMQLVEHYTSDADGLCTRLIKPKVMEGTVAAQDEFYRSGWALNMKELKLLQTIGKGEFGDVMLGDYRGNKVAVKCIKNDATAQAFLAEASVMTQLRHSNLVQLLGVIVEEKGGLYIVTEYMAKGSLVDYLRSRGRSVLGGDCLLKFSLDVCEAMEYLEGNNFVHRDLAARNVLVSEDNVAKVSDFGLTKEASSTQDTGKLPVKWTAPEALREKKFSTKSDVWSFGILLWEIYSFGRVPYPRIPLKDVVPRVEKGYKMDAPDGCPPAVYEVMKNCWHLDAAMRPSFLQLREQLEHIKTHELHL
Chain of GSK3β (P49841 whole entry): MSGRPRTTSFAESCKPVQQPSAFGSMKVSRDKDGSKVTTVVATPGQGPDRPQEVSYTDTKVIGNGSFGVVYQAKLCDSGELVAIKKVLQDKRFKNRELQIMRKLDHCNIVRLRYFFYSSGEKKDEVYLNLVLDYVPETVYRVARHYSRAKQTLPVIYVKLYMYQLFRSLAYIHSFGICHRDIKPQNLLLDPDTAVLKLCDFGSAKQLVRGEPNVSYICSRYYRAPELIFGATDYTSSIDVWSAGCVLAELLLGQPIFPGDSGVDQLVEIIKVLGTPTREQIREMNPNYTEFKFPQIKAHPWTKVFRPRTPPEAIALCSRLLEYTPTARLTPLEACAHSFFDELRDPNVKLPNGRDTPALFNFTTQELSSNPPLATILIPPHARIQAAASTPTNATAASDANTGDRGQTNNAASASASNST
Chain of RSK2 (P51812 whole entry): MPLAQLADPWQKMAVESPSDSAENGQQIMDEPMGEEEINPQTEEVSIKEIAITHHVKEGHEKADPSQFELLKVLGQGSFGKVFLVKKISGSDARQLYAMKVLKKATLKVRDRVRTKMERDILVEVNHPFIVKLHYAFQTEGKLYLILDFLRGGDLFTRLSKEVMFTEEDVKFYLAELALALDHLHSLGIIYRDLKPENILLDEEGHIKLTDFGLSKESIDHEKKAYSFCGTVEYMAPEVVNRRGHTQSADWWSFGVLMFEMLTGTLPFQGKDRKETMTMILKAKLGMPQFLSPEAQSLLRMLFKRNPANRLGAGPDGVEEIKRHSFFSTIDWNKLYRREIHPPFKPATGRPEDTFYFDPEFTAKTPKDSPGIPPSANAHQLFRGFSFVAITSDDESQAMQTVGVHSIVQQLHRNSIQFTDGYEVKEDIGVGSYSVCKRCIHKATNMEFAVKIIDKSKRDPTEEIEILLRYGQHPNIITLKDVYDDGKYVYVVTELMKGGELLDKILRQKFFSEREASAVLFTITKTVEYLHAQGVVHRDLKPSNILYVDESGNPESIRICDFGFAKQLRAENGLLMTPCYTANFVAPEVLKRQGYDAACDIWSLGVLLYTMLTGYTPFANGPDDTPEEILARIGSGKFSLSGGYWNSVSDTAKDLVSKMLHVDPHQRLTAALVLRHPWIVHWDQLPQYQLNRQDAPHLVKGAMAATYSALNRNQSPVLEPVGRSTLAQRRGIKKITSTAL
Chain of ERK2 (P28482 whole entry): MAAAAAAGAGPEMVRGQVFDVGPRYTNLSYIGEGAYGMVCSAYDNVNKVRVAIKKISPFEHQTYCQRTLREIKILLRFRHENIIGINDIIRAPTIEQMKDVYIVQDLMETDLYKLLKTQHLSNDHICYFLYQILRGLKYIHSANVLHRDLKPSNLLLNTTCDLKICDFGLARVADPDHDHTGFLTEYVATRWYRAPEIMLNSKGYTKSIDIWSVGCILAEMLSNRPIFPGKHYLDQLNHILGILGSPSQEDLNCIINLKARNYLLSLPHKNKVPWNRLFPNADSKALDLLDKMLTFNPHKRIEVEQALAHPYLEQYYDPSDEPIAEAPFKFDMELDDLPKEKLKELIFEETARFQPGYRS

As for `CC(C)(COP(=O)(O)OP(=O)(O)OCC1OC(n2cnc3c(N)ncnc32)C(O)C1O)C(O)C(=O)NCCC(=O)NCCS` (stereo not drawn) [dpCoA, dephospho-CoA], the activity at 100 µM in test [1] is 72.1%; in test [2], 81.7%; in test [3] it was 89.9%; in test [4] it was 80%; in test [5], 78.8%; in test [6] it was 62.9%. In addition, the activity at 100 µM in test [7] stood at 54.9%; in test [8], 81.5%.

For the compound `CC(C)(COP(=O)(O)OP(=O)(O)OC[C@H]1O[C@@H](n2cnc3c(N)ncnc32)[C@H](O)[C@@H]1OP(=O)(O)O)[C@@H](O)C(=O)NCCC(=O)NCCS` [CoA, Coenzyme A], the activity at 100 µM in test [1] worked out at 94.7%; in test [2], 120%; in test [3], 99.3%; in test [4], 117%; in test [5], 123%; in test [6], 96.5%. The activity at 100 µM in test [7] stood at 92.6%; in test [8] it was 93.1%.

In the case of `Nc1ncnc2c1ncn2C1OC(COP(=O)(O)OP(=O)(O)O)C(O)C1O` (stereo not drawn) [ADP], the activity at 100 µM came to 18.2% in test [1]; 54.4% in test [2]; 37.7% in test [3]; 11.6% in test [4]; 47.6% in test [5]; 47.9% in test [6]. Moreover, the values for the activity at 100 µM in test [7] and in test [8] were 18.5% and 25%, respectively.
